According to US9675576B2, “Polyenolic zinc-binding agents (pezbins) actively promote inactivation of cancer stem cells and potentiate cytotoxic anti-tumor drug substances” (The Research Foundation for The State University of New York, priority 2012, dated 2017):

Legend:
CD133+ PPT2 cells = assay type: cell-based, human; details: 72 hours, 10 nM-10 μM
Description: (§1) The CSC-specific cytotoxic effects were studied in two different settings both of which are known to maintain/promote sternness phenotype: adherent to type I collagen cultures and 3D cultures of floating spheroids (Baretton, G. B. 1994; Miyoshi, Y. 2000; Koivisto, P. 1995). The CD133^high/CD44^high cells (1×10^3 cells/well) isolated either from PPT2 or PC3MM2 cell lines were seeded onto the type I collagen-coated 96-well plates, cultured in the MSCGM for 2 days, and the treatment was initiated upon 90% confluency. Paclitaxel, SBT-1214 and CMC2.24 were dissolved in sterile DMSO and then serially diluted in MSCGM. For testing the SBT-1214/CMC2.24 combination efficacy, the regular MSCGM was replaced with treatment medium containing SBT-1214 or Ptx at selected concentration range (from 10 nM to 10 μM) with 30 μM CMC2.24. Treatment medium was removed 24, 48 or 72 hr later, followed by return to the MSCGM. Cell death was analyzed on adherent type I collagen cell cultures with the MTT assay [MTT=3-(4,5-dimethylthiazol-2-yl)-2,5-diphenyltetrazolium bromide] as recommended by manufacturer (Invitrogen). Spheroids were cultured and treated on ULA plates.
(§2) The dose-response cytotoxicity of SBT-1214, CMC2.24/and their combination was evaluated by standard MTT assay (all of the in vitro experiments were repeated at least three times and each measurement for the MMT assay was performed in 4 repeats). The dose-response points were plotted as a percentage of the untreated control, the absorbance of which was considered as 100%. Data were expressed as means±SD for each drug concentration. The in vivo responses to drug treatment were evaluated as changes in tumor volume of drug-treated versus untreated control xenografts induced by particular type of cells. Data were expressed as means±SD for control and drug treated tumors. The statistical significance of differences was determined using Student's t-test. The parameters used were the two-tailed distribution and the paired test. P<0.05 was considered statistically significant.

CD133+ PC3MM2 cells = experiment: MTT cytotoxicity assay, CD133+ PC3MM2 cells on type I collagen; assay type: cell-based, human; details: 72 hours, 10 nM-10 μM
Description: as §1, with “For testing the SBT-1214/CMC2.24 combination efficacy, the regular MSCGM was replaced with treatment medium containing SBT-1214 or Ptx at selected concentration range (from 10 nM to 10 μM) with 30 μM CMC2.24. Treatment medium was removed 24, 48 or 72 hr later, followed by return to the MSCGM.” left out, “Spheroids were cultured and treated on ULA plates.” left out
The dose-response cytotoxicity of SBT-1214, CMC2.24/and their combination was evaluated by standard MTT assay (all of the in vitro experiments were repeated at least three times and each measurement for the MMT assay was performed in 4 repeats). The dose-response points were plotted as a percentage of the untreated control, the absorbance of which was considered as 100%. Data were expressed as means±SD for each drug concentration. […] Data were expressed as means±SD for control and drug treated tumors. The statistical significance of differences was determined using Student's t-test. […]

[1] = system: prostate CD133+ cells (PPT2 and PC3MM2); experiment: MTT cytotoxicity assay, results stated for prostate CD133+ cells without split by line; assay type: cell-based, human; details: for concentration dependence of effect on prostate CD133+ cells: single agent
Description: as §1, §2

[2] = system: PPT2 and PC3MM2 cell lines; experiment: FACS analysis of CD133 expression after drug treatment; assay type: cell-based, human
Text: To ensure more reliable isolation of CSCs, cells were labeled with one or several markers conjugated with different fluorescent dyes, including anti-human CD133/2-APC (clone 293C3; Miltenyi Biotec, CA, USA); CD166-PE (clone 105902; R&D Systems, MN, USA); CD44-FITC (clone F10-44-2), CD44-PE (clone F10-44-2; Invitrogen/Biosources, USA); CD44v6-FITC (clone 2F10; R&D Systems, USA), EpCAM-FITC (Biosource, CA, USA), Pan-Keratin (C11)-Alexa Fluor® 488 (Cell Signaling) and all the isotype controls (Chemicon). Antibodies were diluted in buffer containing 5% BSA, 1 mM EDTA and 15-20% blocking reagent (Miltenyi Biotec) to inhibit unspecific binding to non-target cells. After 15 min incubation at 4° C., stained cells were sorted and analyzed with multiparametric flow cytometer BD FACSAria (Becton Dickinson, CA). Alternatively, dissociated cells were centrifuged at 950 g for 5 min at 4° C., rinsed with sterile MACS buffer (Miltenyi Biotec, CA) and labeled with CD133 Abs directly or indirectly conjugated with ferromagnetic beads (Miltenyi Biotec, CA) as recommended by manufacturer.
as §1, with “For testing the SBT-1214/CMC2.24 combination efficacy, the regular MSCGM was replaced with treatment medium containing SBT-1214 or Ptx at selected concentration range (from 10 nM to 10 μM) with 30 μM CMC2.24. Treatment medium was removed 24, 48 or 72 hr later, followed by return to the MSCGM.” left out, “Spheroids were cultured and treated on ULA plates.” left out

CD133hi cells = experiment: Number of CD133hi cells after taxol, stemness-promoting cultures (FIG. 1); assay type: cell-based
Description: FIG. 1: The standard anti-cancer drug Taxol increases the ratios (shown by FACS analyses of cells with high expression of CD133) and actual number of CSCs (shown at right graph). CSC-enriched cell populations were cultured and treated in vitro under stemness-promoting condition, i.e. adherent to type I collagen (upper left panels) and as floating 3D spheroids (low left panels) in serum-free stem cell medium (MSCBM, Lonza).
Before any assays, particular cells were isolated using immunomagnetic and FACS cell sorting, characterized with FACS analysis and cultured under the stemness-promoting conditions (repeated cell sorting; serum-free stem cell medium; Lonza; low cell density; type I collagen-coated surfaces; non-adherent culturing on ultra-low adherent plates; Corning).

[3] = system: CSC-relevant transcription factors in colon cancer HCT116 CD133+ and prostate xPT2 CD133+ cells; experiment: PCR array of stem cell-related transcription factors, colon and prostate CD133+ cells; assay type: cell-based, human; details: CMC2.24 as stated in Example 2
Description: Stem cell-specific gene expression profiles were studied with the PCR Array assay (SABiosciences, CA) in accordance with the manufacturer's recommendations. Briefly, total RNA was isolated from different cell populations (cancer stem cells expressing high levels of the CD133 and CD44, or whole floating spheroids that are enriched with CSCs) using PARIS kit (Ambion). Up to 1 μg of total RNA was treated with DNase and cDNA was prepared using RT^2 First Strand kit. For each analysis, pairs of the test and control cDNA samples were mixed with RT^2 qPCR Master mix and distributed across the PCR array 96-well plates, each of which contained 84 stem cell-related probes and control housekeeping genes. After cycling with real-time PCR (Opticon MJ Research or ABI 7300, Applied Biosystems), obtained amplification data (fold-changes in Ct values of all the genes) was analyzed with SABiosciences software.

c-Myc, Sox-2 and Oct4 = experiment: Western blot of key transcription factors; assay type: cell-based, human
Description: (§3) Cells were lysed using Active Motif Nuclear Co-ip kit according to manufacturer's protocol. 20 μg of enriched nuclear and cytoplasmic extracts was subjected to electrophoresis in 10% polyacrylamide gel. The proteins were then transferred to a nitrocellulose membrane and developed with appropriate antibodies.

p53 and p21 = experiment: Western blot of pro-apoptotic proteins; assay type: cell-based, human; details: CD133+ and bulk PPT2 cells, previously not expressed
Description: as §3

[4] = in vivo; cited from earlier work

For `CC(=O)O[C@H]1C(=O)[C@@]2(C)[C@H]([C@H](OC(=O)c3ccccc3)[C@]3(O)C[C@H](OC(=O)[C@H](O)[C@@H](NC(=O)c4ccccc4)c4ccccc4)C(C)=C1C3(C)C)[C@]1(OC(C)=O)CO[C@@H]1C[C@@H]2O` [Paclitaxel], the “proliferation of the tumorigenic prostate cancer cells” value (CD133+ PPT2 cells) was “did not suppress proliferation”, the “proliferation of the tumorigenic prostate cancer cells” value (CD133+ PC3MM2 cells) was “did not suppress proliferation” and the cell death ([1]; 10 μM, 48-72 hours) was “about 40%”. The “ratios of cells with highest expression of CD133” value ([2]; 10 nM to 10 μM, 24 hours, concentration-dependent) was “increased the ratios”, the “number of CD133hi cells after treatment” value (CD133hi cells; 3D spheroids) was 149% and the “number of CD133hi cells after treatment” value (CD133hi cells; type I collagen cultures) was 160%.

In the case of `COc1cc(/C=C/C(=O)CC(=O)/C=C/c2ccc(O)c(OC)c2)ccc1O` [curcumin, diferuloylmethane], the “concentration dependence of effect on prostate CD133+ cells” value [1] was “biphasic effects”.

For `O=C(/C=C/c1ccc(O)cc1)C(C(=O)/C=C/c1ccc(O)cc1)C(=O)Nc1ccccc1` [CMC2.24], the “effect on cells, higher doses” value ([1]; 10-40 μM, 72 hr) was “increasingly cytotoxic”, the “concentration dependence of effect on prostate CD133+ cells” value [1] was “biphasic effects” and the “effect on cell proliferation, low concentrations” value ([1]; up to 10 μM, 72 hr) was “stimulated cell proliferation”. For the same compound, the “ratios of cells with highest expression of CD133” value ([2]; CMC2.24 treatment, FIG. 11C) was “did not induce an increase”, the “inhibition of CSC-relevant transcription factors” value [3] was “profound inhibition of the majority” and the “key TF proteins” value (c-Myc, Sox-2 and Oct4; both nuclear and cytoplasmic fractions) was “dramatic inhibition”. The “c-Myc and Sox2 expression” value (c-Myc, Sox-2 and Oct4; nuclear extracts of CD133+ and bulk PPT2 cells) was “moderate down-regulation”, the “expression of p21 and p53” value (p53 and p21) was “induced expression” and the systemic toxicity [4] was “no systemic toxicity”.
